Active and inactive are the calls of the source. The rule behind the calls is not given here.
Tests used:
HepG2 [1] = test: Cytotoxicity against human HepG2 cells assessed as inhibition of cell proliferation incubated for 48 hrs by MTT assay; format: functional, cell-based; settings: HepG2, 48 h
MHCC97H [2] = test: Antitumor activity against human MHCC97H cells xenografted in nude mouse assessed as tumor growth inhibition at 20 mg/kg, po administered daily for 3 weeks relative to control; format: functional; settings: 504 h, read-out: TGI
Huh-7 [3] = test: Cytotoxicity against human Huh-7 cells assessed as inhibition of cell proliferation incubated for 48 hrs by MTT assay; format: functional, cell-based; settings: Huh-7, 48 h
MHCC97H [4] = test: Antitumor activity against human MHCC97H cells xenografted in nude mouse assessed as tumor weight at 20 mg/kg, po administered daily for 3 weeks (reference value: 1.667g); format: functional
MHCC97H [5] = test: Cytotoxicity against human MHCC97H cells assessed as inhibition of cell proliferation incubated for 48 hrs by MTT assay; format: functional, cell-based
[6] = Toxicity in nude mouse implanted with human MHCC97H cells assessed as body weight at 20 mg/kg, po administered daily for 3 weeks and measured immediately (reference value: 25.05 g); format: organism-based; settings: in vivo, 504 h
HCCLM3 [7] = test: Cytotoxicity against human HCCLM3 cells assessed as inhibition of cell proliferation incubated for 48 hrs by MTT assay; format: functional, cell-based; settings: HCCLM3, 48 h
HCCLM3 [8] = test: Cytotoxicity against human HCCLM3 cells assessed as cell viability incubated at 12 to 48 hrs hrs by MTT assay; format: functional, cell-based; settings: dose <= 40.0 µM, time 12-48 hrs
HCCLM3 [9] = test: Cytotoxicity against human HCCLM3 cells assessed as cell viability up to 40 uM by MTT assay; format: functional, cell-based; settings: time 12-48 hrs
HCCLM3 [10] = test: Cytotoxicity against human HCCLM3 cells assessed as cell viability up to 40 uM measured at 24 to 48 hrs by MTT assay; format: functional, cell-based; settings: time 24-48 hrs
MHCC97H [11] = test: Cytotoxicity against human MHCC97H cells assessed as reduction in cell viability at 40 uM measured at 48 hrs by MTT assay; format: functional, cell-based
MHCC97H [12] = test: Cytotoxicity against human MHCC97H cells assessed as cell viability up to 40 uM measured at 24 to 48 hrs by MTT assay; format: functional, cell-based; settings: time 24-48 hrs
HCCLM3 [13] = test: Cytotoxicity against human HCCLM3 cells assessed as reduction in cell viability up to 40 uM measured at 48 hrs by MTT assay; format: functional, cell-based
MHCC97H [14] = test: Cytotoxicity against human MHCC97H cells assessed as reduction in cell viability at 40 uM measured after 48 hrs by MTT assay; format: functional, cell-based
HCCLM3 [15] = test: Cytotoxicity against human HCCLM3 cells assessed as reduction in cell viability at 40 uM measured at 48 hrs by MTT assay; format: functional, cell-based
HCCLM3 [16] = test: Cytotoxicity against human HCCLM3 cells assessed as cell viability up to 40 uM measured at 12 hrs by MTT assay; format: functional, cell-based
MHCC97H [17] = test: Cytotoxicity against human MHCC97H cells assessed as reduction in cell viability up to 40 uM measured at 48 hrs by MTT assay; format: functional, cell-based
MHCC97H [18] = test: Cytotoxicity against human MHCC97H cells assessed as cell viability up to 40 uM by MTT assay; format: functional, cell-based; settings: time 12-48 hrs
HCCLM3 [19] = test: Cytotoxicity against human HCCLM3 cells assessed as reduction in cell viability at 40 uM measured after 48 hrs by MTT assay; format: functional, cell-based
MHCC97H [20] = test: Cytotoxicity against human MHCC97H cells assessed as cell viability incubated at 12 to 48 hrs hrs by MTT assay; format: functional, cell-based; settings: dose <= 40.0 µM, time 12-48 hrs
MHCC97H [21] = test: Antitumor activity against human MHCC97H cells xenografted in nude mouse assessed as increase in apoptotic cells at 5 to 10 mg/kg, po administered daily for 3 weeks by TUNEL staining based assay; format: functional, organism-based; settings: dose 5-10 mg/kg
MHCC97H [22] = test: Cytotoxicity against human MHCC97H cells assessed as cell viability up to 40 uM measured at 12 hrs by MTT assay; format: functional, cell-based
HCCLM3 [23] = test: Antiproliferative activity against human HCCLM3 cells assessed as reduction in intracellular ATP level at 10 uM incubated for 48 hrs by luminometer analysis relative to control; format: functional; parameters: scale not given: the % may be the effect or the level left
MHCC97H [24] = test: Antitumor activity against human MHCC97H cells xenografted in nude mouse assessed as tumor growth inhibition at 10 mg/kg, po administered daily for 3 weeks relative to control; format: functional; settings: 504 h, read-out: TGI
MHCC97H [25] = test: Antitumor activity against human MHCC97H cells xenografted in nude mouse assessed as tumor weight at 15 mg/kg, po administered daily for 3 weeks (reference value: 1.667g); format: functional
MHCC97H [26] = test: Antitumor activity against human MHCC97H cells xenografted in nude mouse assessed as tumor growth inhibition at 5 mg/kg, po administered daily for 3 weeks relative to control; format: functional; settings: 504 h, read-out: TGI
MHCC97H [27] = test: Antiproliferative activity against human MHCC97H cells assessed as reduction in intracellular ATP level at 10 uM incubated for 48 hrs by luminometer analysis relative to control; format: functional; parameters: scale not given: the % may be the effect or the level left
MHCC97H [28] = test: Antitumor activity against human MHCC97H cells xenografted in nude mouse assessed as tumor weight at 5 mg/kg, po administered daily for 3 weeks (reference value: 1.667g); format: functional
Huh-7 [29] = test: Antiproliferative activity against human Huh-7 cells assessed as reduction in intracellular ATP level at 10 uM incubated for 48 hrs by luminometer analysis relative to control; format: functional; parameters: scale not given: the % may be the effect or the level left
HepG2 [30] = test: Antiproliferative activity against human HepG2 cells assessed as reduction in intracellular ATP level at 10 uM incubated for 48 hrs by luminometer analysis relative to control; format: functional; parameters: scale not given: the % may be the effect or the level left
MHCC97H [31] = test: Antiproliferative activity against human MHCC97H cells assessed as reduction in intracellular ATP level at 30 uM incubated for 48 hrs by luminometer analysis relative to control; format: functional; parameters: scale not given: the % may be the effect or the level left
MHCC97H [32] = test: Antitumor activity against human MHCC97H cells xenografted in nude mouse assessed as tumor weight at 10 mg/kg, po administered daily for 3 weeks (reference value: 1.667g); format: functional
MHCC97H [33] = test: Antitumor activity against human MHCC97H cells xenografted in nude mouse assessed as tumor growth inhibition at 15 mg/kg, po administered daily for 3 weeks relative to control; format: functional; settings: 504 h, read-out: TGI

CNC(=O)c1cc(Oc2ccc(NC(=O)Nc3ccc(Cl)c(C(F)(F)F)c3)cc2)ccn1 [SORAFENIB]
IC50 (HepG2 [1]): 13.8 µM
inhibition in vivo at 20 mg/kg (MHCC97H [2]): 42.8%
IC50 (Huh-7 [3]): 13.8 µM
Activity (MHCC97H [4]): 0.955 g
IC50 (MHCC97H [5]): 15.2 µM
Activity [6]: 26.85 g
IC50 (HCCLM3 [7]): 9.22 µM

CC[C@@H](C)[C@H]1NC(=O)[C@@H]2CCCN2C(=O)[C@@H](CC(C)C)NC(=O)[C@H](COC(C)(C)C)NC(=O)[C@@H](CC(C)C)NC(=O)[C@H](C(C)C)NC(=O)[C@H](CC(C)C)NC(=O)[C@H](CC(C)C)NC(=O)[C@H](CC(C)C)NC1=O
Activity (HCCLM3 [8]): Dose-dependent-effect
Activity (HCCLM3 [9]): Time-dependent-effect
Activity (HCCLM3 [10]): Active
Activity (MHCC97H [11]): Active
Activity (MHCC97H [12]): Active
Activity (HCCLM3 [13]): Active
Activity (MHCC97H [14]): Active
Activity (HCCLM3 [15]): Active
Activity (HCCLM3 [16]): Active
Activity (MHCC97H [17]): Active
Activity (MHCC97H [18]): Time-dependent-effect
Activity (HCCLM3 [19]): Active
Activity (MHCC97H [20]): Dose-dependent-effect
Activity (MHCC97H [21]): Active
Activity (MHCC97H [22]): Active

CC[C@H](C)[C@@H]1NC(=O)[C@@H]2CCCN2C(=O)[C@H](CC(C)C)NC(=O)[C@H](CO)NC(=O)[C@H](CC(C)C)NC(=O)[C@H](C(C)C)NC(=O)[C@H](CC(C)C)NC(=O)[C@H](CC(C)C)NC(=O)[C@H](CC(C)C)NC1=O
Activity (HCCLM3 [23]): 45.9%
inhibition in vivo at 10 mg/kg (MHCC97H [24]): 56.1%
Activity (MHCC97H [25]): 0.695 g
inhibition in vivo at 5 mg/kg (MHCC97H [26]): 66.9%
Activity (MHCC97H [27]): 47.3%
Activity (MHCC97H [28]): 0.552 g
Activity (Huh-7 [29]): 47.3%
Activity (HepG2 [30]): 47.1%
Activity (MHCC97H [31]): 61.9%
Activity (MHCC97H [32]): 0.732 g
inhibition in vivo at 15 mg/kg (MHCC97H [33]): 58.4%

— ChEMBL document CHEMBL6109101, “Synthesis and bioactivity of cyclic peptide GG-8-6 analogues as anti-hepatocellular carcinoma agents” (Eur J Med Chem, 2025)
